Data published in US20210121527A1, “METHODS OF TREATING MINIMAL RESIDUAL CANCER” (ICAHN SCHOOL OF MEDICINE AT MOUNT SINAI, priority 2018, published 2021).

How the values were obtained:
[1] = target: T1, Recombinant human EIF2AK3 (PERK) catalytic domain (Homo sapiens, UniProt Q9NZJ5); experiment: PERK biochemical TR-FRET kinase assay using purified eIF2a as substrate; details: read-out: PERK Enzyme IC50
T1 construct: catalytic domain (amino acids 536-1116; Cat # PV5107); purchased Invitrogen (Carlsbad, Calif.) PV5107
T1 sequence (Q9NZJ5 536-1116): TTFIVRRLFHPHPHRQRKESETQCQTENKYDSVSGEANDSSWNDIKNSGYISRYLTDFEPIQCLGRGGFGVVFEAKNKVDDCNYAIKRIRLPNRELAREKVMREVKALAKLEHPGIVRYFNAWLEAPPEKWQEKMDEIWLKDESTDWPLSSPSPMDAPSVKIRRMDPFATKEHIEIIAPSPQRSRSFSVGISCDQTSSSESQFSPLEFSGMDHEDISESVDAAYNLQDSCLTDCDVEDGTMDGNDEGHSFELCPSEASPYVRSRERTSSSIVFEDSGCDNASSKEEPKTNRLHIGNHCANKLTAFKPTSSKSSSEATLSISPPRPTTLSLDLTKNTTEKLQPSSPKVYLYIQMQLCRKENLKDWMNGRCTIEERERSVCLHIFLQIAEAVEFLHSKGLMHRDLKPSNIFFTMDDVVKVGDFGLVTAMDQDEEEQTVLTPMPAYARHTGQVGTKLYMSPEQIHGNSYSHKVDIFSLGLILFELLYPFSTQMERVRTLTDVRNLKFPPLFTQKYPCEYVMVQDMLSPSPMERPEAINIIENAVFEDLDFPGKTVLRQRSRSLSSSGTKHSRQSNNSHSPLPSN
Procedure: TR-FRET kinase assays were performed in the absence or presence of inhibitors in a reaction buffer consisting of 50 mM HEPES, pH 7.5, 10 mMMgCl2, 1.0 mM EGTA, and 0.01% Brij-35, and 100-200 nM GFP-eIF2a substrate. […] Following the addition of test compound, the reaction was initiated by addition of enzyme and incubated at room temperature for 45 minutes. The reaction was stopped by addition of EDTA to a final concentration of 10 mM and Terbium-labelled phospho-eIF2α antibody was added at a final concentration of 2 nM and incubated for 90 minutes. The resulting fluorescence was monitored in an EnVison® Multilabel reader (PerkinElmer, Waltham, Mass.). TR-FRET ratios and the resulting IC50 values were determined from the fitted inhibition curves. Biochemical specificity profiling was performed at Cerep (Redmond, Wash.) and DiscoverX (San Diego, Calif.).

PERK = target: T2, PERK (Homo sapiens, UniProt Q9NZJ5); experiment: Cell-based TR-FRET assay of tunicamycin-induced eIF2a phosphorylation in 293 cells
T2 construct: endogenous in cells; host or cells: GripTite 293 cells expressing GFP-eIF2a
T2 sequence (Q9NZJ5 30-1116): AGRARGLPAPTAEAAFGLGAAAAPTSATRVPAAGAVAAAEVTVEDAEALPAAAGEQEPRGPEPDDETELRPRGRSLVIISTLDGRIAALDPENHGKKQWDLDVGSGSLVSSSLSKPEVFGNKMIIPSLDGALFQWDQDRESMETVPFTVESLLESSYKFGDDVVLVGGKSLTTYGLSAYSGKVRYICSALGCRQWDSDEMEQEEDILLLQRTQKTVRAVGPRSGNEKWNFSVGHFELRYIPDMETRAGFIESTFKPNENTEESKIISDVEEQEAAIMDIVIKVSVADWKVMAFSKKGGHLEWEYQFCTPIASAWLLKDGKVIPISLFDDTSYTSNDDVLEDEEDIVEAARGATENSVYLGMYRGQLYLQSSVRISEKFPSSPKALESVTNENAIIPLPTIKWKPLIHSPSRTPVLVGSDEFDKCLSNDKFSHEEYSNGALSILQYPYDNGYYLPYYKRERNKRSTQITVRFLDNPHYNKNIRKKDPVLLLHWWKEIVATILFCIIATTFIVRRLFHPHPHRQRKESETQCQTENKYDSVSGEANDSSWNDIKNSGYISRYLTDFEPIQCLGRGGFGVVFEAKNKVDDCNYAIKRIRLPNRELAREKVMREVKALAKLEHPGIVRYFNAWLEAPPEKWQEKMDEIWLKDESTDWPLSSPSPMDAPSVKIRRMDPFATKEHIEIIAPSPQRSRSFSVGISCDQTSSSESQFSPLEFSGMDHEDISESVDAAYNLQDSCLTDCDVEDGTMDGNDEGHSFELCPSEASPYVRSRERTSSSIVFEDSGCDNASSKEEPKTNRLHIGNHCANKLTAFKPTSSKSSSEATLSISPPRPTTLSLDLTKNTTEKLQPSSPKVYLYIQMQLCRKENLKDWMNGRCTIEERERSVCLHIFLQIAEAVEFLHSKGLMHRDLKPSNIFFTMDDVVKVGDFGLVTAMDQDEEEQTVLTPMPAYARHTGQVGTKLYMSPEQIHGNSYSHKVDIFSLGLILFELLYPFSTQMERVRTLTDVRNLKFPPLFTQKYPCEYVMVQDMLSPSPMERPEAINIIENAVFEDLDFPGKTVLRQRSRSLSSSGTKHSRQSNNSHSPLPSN
Procedure: Cell-based TR-FRET assay: Briefly, GripTite™ 293 cells (Invitrogen) expressing GFP-eIF2a were seeded at 10,000 cells per well in 384-well plates and allowed to attach overnight. Cells were pre-treated with test compounds for 1 hour. Tunicamycin (1 μM) was added to induce PERK activity and the plates were incubated at 37° C. for 2 hours. The culture media was removed and the cells were lysed in buffer consisting of 20 mM Tris-HCl, pH 7.5, 150 mM NaCl, 5 mM EDTA, 1% NP-40, 5 mM NaF, Protease inhibitors (Sigma Cat # P8340), Phosphatase inhibitors (Sigma Cat # P2850), and 2 nM Terbium-labelled anti-phospho-eIF2 antibody (Invitrogen Cat # PM43121). Cell lysates were incubated for 2 hours in the dark at room temperature and fluorescence was monitored in an EnVison® Multilabel reader (PerkinElmer, Waltham, Mass.).

ATF4-Luc activity = experiment: ATF4-luc assay, tunicamycin-induced, 293 cells; details: Homo sapiens, HEK293; tunicamycin-induced ATF4-Luc activity in 293 cells; read-out: ATF4-luc Cell-based IC50
Procedure: ATF4-luc assay: 293 cells were transduced with an ATF4-luc expressing lentivirus (SABiosciences, Frederick, Md.) and selected in growth medium containing 1 μg/ml puromycin. To determine the effect of compounds on ER stress-induced ATF4 activity, 293-ATF4-luc cells were seeded at 15,000 cells per well in poly-D-Lysine coated 96-well plates and allowed to attach overnight. The cells were then pre-treated with test compounds for 30 minutes. Tunicamycin (2 μM) was added to induce ER stress and the plates were incubated at 37° C. for 6 hours. The culture media was then aspirated and the cells were lysed in passive lysis buffer (Promega Cat # E194A) on a plate shaker for 5 minutes. Luciferase activity was monitored using Luciferase Assay Reagent (Promega Cat # E1501) in a Wallac 1420 Victor2™ Multilabel Counter (PerkinElmer, Waltham, Mass.) and IC50 values were determined from the resulting fitted inhibition curves using un-induced (100% inhibition) and induced (0% inhibition) wells as controls.

Compound	IC50 [1] [nM]	IC50 (PERK) [nM]	IC50 (ATF4-Luc activity) [nM]
Cc1cccc(CC(=O)N2CCc3c2ccc(-c2cn(C)c4ncnc(N)c24)c3F)n1 [GSK2656157, reference compound]	8	36	21
CNC(=O)c1nc(-c2ccc(NC(=O)[C@H](O)c3cc(F)cc(F)c3)cc2C)cnc1N [LY2, 3-amino-6-[4-[[(2R)-2-(3,5-difluorophenyl)-2-hydroxy-acetyl]amino]-2-methyl-phenyl]-N-methyl-pyrazine-2-carboxamide]	2	117	56
Cc1cc(NC(=O)[C@H](O)c2cccc(F)c2)ccc1-c1cn(C)c2ncnc(N)c12 [LY3, (2R)-N-[4-(4-amino-7-methyl-pyrrolo[2,3-d]pyrimidin-5-yl)-3-methyl-phenyl]-2-(3-fluorophenyl)-2-hydroxy-acetamide]	2	26	16
Cc1cc(NC(=O)[C@H](O)c2cc(F)cc(F)c2)ccc1-c1cnc(N)c(C(=O)NC(C)C)c1 [LY4, 2-amino-5-[4-[[(2R)-2-(3,5-difluorophenyl)-2-hydroxy-acetyl]amino]-2-methyl-phenyl]-N-isopropyl-pyridine-3-carboxamide]	2	54	48
